The values below are quoted from earlier work in paper PMC6339850 (ACS chemical neuroscience, 2018).

The subject of the data set is MC1R. The note with it: read-out: MC1R agonist potency, cited from earlier work.

pEC50: −log10 of the molar value. Like-named read-outs stand apart in the source and are kept apart here. Bridge positions count the residues as written; N and C are the ends. Square brackets hold non-standard residues; d marks the D form. Dap = NC[C@H](N)C(=O)O

With “H-Tyr-c[Dap-Arg-Phe-Phe-Asn-Ala-Phe-Asp]-Tyr-NH2 (Y[Dap]RFFNAFDY-NH2; lactam N-9; SMILES C[C@@H]1NC(=O)[C@H](CC(N)=O)NC(=O)[C@H](Cc2ccccc2)NC(=O)[C@H](Cc2ccccc2)NC(=O)[C@H](CCCNC(=N)N)NC(=O)[C@H](CN)NC(=O)[C@H](Cc2ccc(O)cc2)NC(=O)C[C@@H](C(=O)N[C@@H](Cc2ccc(O)cc2)C(N)=O)NC(=O)[C@H](Cc2ccccc2)NC1=O)”, the pEC50 (previously reported ref 34) was 4.55.
Turning to “H-Tyr-c[Cys-Arg-Phe-Phe-Asn-Ala-Phe-Cys]-Tyr-OH”, under “previously reported ref 33”, the pEC50 was 5.54.
